Experiments:
[1] = for speed of sound / mass density: 101.33 kPa, Liquid; for speed of sound: Linear variable-path acoustic interferometer; for mass density: Vibrating tube method; for surface tension liquid-gas: Drop volume
[2] = xn = mol fraction of the nth substance listed; details: for surface tension liquid-gas: 298.15 K, Drop volume; for speed of sound / mass density: 303.15 K, Liquid; for speed of sound: Linear variable-path acoustic interferometer; for mass density: Vibrating tube method

Cc1ccc(C)cc1 [1,4-dimethylbenzene]
[1]
Details	mass density [kg/m3]	speed of sound [m/s]	surface tension liquid-gas [mN/m]
288.15 K	865.2	1350.7	–
293.15 K	860.9	1329.6	–
298.15 K	856.58	1308.4	27.43
303.15 K	852.21	1287.4	–
308.15 K	847.83	1266.4	–

CCOC(=O)OCC [diethyl carbonate] + CCCCCCCCCC
[2]
Details	mass density [kg/m3]	speed of sound [m/s]	surface tension liquid-gas [mN/m]
x1 = 0.0495	729.09	1207.8	–
x1 = 0.04972	–	–	22.98
x1 = 0.09861	736.12	1201.1	–
x1 = 0.09958	–	–	22.89
x1 = 0.1979	751.5	1188.8	–
x1 = 0.1989	–	–	22.86
x1 = 0.2966	–	–	22.84
x1 = 0.3012	769.28	1177.8	–
x1 = 0.3959	–	–	22.89
x1 = 0.3995	788	1168.5	–
x1 = 0.504	810.31	1160.2	–
x1 = 0.5144	–	–	22.97
x1 = 0.5477	820.39	1157.2	–
x1 = 0.5568	–	–	22.98
x1 = 0.5996	–	–	23.04
x1 = 0.6015	833.53	1153.9	–
x1 = 0.699	859.54	1149.6	–
x1 = 0.7	–	–	23.24
x1 = 0.7887	–	–	23.58
x1 = 0.799	889.41	1147.7	–
x1 = 0.8986	–	–	24.27
x1 = 0.9002	924.32	1149.1	–
x1 = 0.95	943.19	1151.4	–
x1 = 0.9516	–	–	24.76

CCOC(=O)OCC [diethyl carbonate]
[1]
Details	mass density [kg/m3]	speed of sound [m/s]	surface tension liquid-gas [mN/m]
288.15 K	980.4	1218	–
293.15 K	974.81	1197.7	–
298.15 K	969.19	1176.9	25.43
303.15 K	963.6	1156.3	–
308.15 K	957.92	1135.8	–

CCCCCCCCCC [decane]
[1]
Details	mass density [kg/m3]	speed of sound [m/s]	surface tension liquid-gas [mN/m]
288.15 K	733.62	1274.4	–
293.15 K	729.86	1254.8	–
298.15 K	726.09	1234.7	23.1
303.15 K	722.3	1214.7	–
308.15 K	718.51	1194.9	–
